Laboratory results: patent US20160008391A1, “GALACTOSAMINOGALACTAN COMPRISING alpha-1-4 LINKED GALACTOSE AND alpha-1-4 LINKED N-ACETYLGALACTOSAMINE FOR USE IN THE TREATMENT OF AT LEAST ONE INFLAMMATORY DISEASE” (INSTITUT PASTEUR, priority 2013, published 2016)

Key:
human PBMCs [1] = assay: A. fumigatus conidia-induced cytokine production in human PBMCs; assay type: cell-based; conditions: 7 days, presence vs absence of recombinant human IL-1RA 10 ng/ml
Method: (§1) A clinical isolate of Aspergillus fumigatus V05-27, which has been characterized previously was used for stimulations (Netea et al., 2003). Conidia and hyphae were prepared and heat-inactivated (HI) as previously described (Chai et al., 2009a). A concentration of 1×10^7/ml was used in the experiments, unless otherwise indicated. C. albicans, strain ATCC MYA-3573 (UC820) (Gow et al., 2007; Lehrer and Cline, 1969). Candida were heat-killed (HK) at 98° C. for 1 hour and used in a final concentration of 1×10^7/ml. Recombinant human IL-1β, IL-23, IL-12 and IL-18 were purchased from R&D Systems (Minneapolis, Minn., USA) and were used in end concentrations of 100 ng/ml, 50 ng/ml, 10 ng/ml and 50 ng/ml respectively. Recombinant human (rh) IL-1Ra (Amgen, Inc., Thousand Oaks, Calif., USA) was used to antagonize IL-1β signalling at a final concentration of 10 ng/ml. Anti-human IL-1Ra (R&D) was used to block IL-1Ra in a final concentration of 10 μg/ml, and was compared to isotype control. Pattern recognition pathways were inhibited in PBMCs by pre-stimulation for 1 hour with a specific inhibitor. LPS derived from Bartonella quitana was used to block TLR4 (Abdollahi-Roodsaz et al., 2007). B. quitana LPS was extracted and purified as described previously (Hirschfeld et al., 1999). Mouse anti-humanTLR-2 (eBioscience, Halle-Zoersel, Belgium) and control mouse IgG1 (eBioscience) were used at a final concentration of 10 μg/mL. Anti-human integrin β2 (αCR3) and control goat IgG were purchased from R&D systems (Minneapolis, Minn., USA) and used in a final concentration of 10 μg/mL. […]
(§2) Venous blood from healthy volunteers was drawn into 10 ml EDTA tubes after written informed consent, after which PBMCs were isolated as previously described (van de Veerdonk et al., 2009). […] The cells were counted using a particle counter (Beckmann Coulter, Woerden, The Netherlands) and the cell number was adjusted to 5×10^6/ml. […]
(§3) Cytokines were measured using commercially available ELISAs (R&D Systems)(Sanquin, Amsterdam, The Netherlands) according to the protocols supplied by the manufacturer. […]

human PBMCs [2] = assay: Cytokine-driven (IL-1β/IL-23, IL-12/IL-18) T-helper cytokine responses in human PBMCs; assay type: cell-based; conditions: 7 days, presence vs absence of recombinant human IL-1RA 10 ng/ml
Method: as §1, §2, §3

DSS-induced colitis = assay: Dextran sulfate sodium-induced colitis in WT and p47phox−/− mice; assay type: in vivo; conditions: WT and p47phox−/− mice treated with Anakinra
Method: Mice received either regular drinking water (control) or 2.5% dextran sulfate sodium (DSS) in drinking water for 7 days and then allowed to recover by drinking water alone for an additional 7 days. GAG was given intraperitoneally (1 mg/kg) daily for a week. Weight changes were recorded daily, and the day after the 7-days of rest mice were killed and tissues were collected for histology and cytokine analysis. Colonic sections were stained with H&E (Takedatsu 2008). To assess colitis severity, stool and histological scores were used that recently were introduced and proven sensitive to experimental therapy (PMID: 21763243).
Colitis was induced in C57BL/6 wild-type (WT) or p47phox^−/− mice that recapitulate several of the features of the human Chronic Granulomatous Disease (CGD) (Huang et al., 1998; Romani et al., 2008). Colitis is a severe complication of CGD patients, the management of which is a challenge because standard immunosuppressive therapy increases the risk of infection in already immunocompromised hosts (Huang et al., 2004). Colitis was induced with dextran sulfate sodium (DSS 2.5% in drinking water for 7 days and then allowed to recover by drinking water alone for an additional 7 days) and the effect of GAG (1 mg/kg intraperitoneally for a week) on colonic injury was assessed. The day after the 7-day of rest, mice were killed and tissues were collected for histology, RNA and cytokine analysis. Colonic sections were stained with H&E, and histology was scored. Cytokines were measured by enzyme-linked immunoabsorbent assay (ELISA) and real time-polymerase chain reaction (RT-PCR) on colonic tissues.

[3] = cited from earlier work
[4] = patients with rheumatoid arthritis

With “IL-1RA: human recombinant form of interleukin-1 receptor antagonist, commercially produced as anakinra” the “IFNγ induction by Aspergillus conidia” value (human PBMCs [1]) was “reduced”, the “IL-17 induction by Aspergillus conidia” value (human PBMCs [1]) was “reduced” and the “IL-22 induction by Aspergillus conidia” value (human PBMCs [1]) was “reduced”. The “IFNγ induction by IL-12/IL-18” value (human PBMCs [2]) was “reduced”, the “IL-17 induction by IL-1/IL-23” value (human PBMCs [2]) was “reduced” and the “IL-22 induction by IL-1/IL-23” value (human PBMCs [2]) was “reduced”. For the same substance, the “cytokine gene expression, compared with the effect of GAG” value (DSS-induced colitis) was “similar”, the “damage score, compared with the effect of GAG” value (DSS-induced colitis) was “similar” and the “inflammatory pathology, compared with the effect of GAG” value (DSS-induced colitis) was “similar”. The “side effect: diarrhea” value ([3]; human, in vivo) was 7%, the “side effect: flu-like syndrome” value ([3]; human, in vivo) was 6% and the “side effect: infections of upper respiratory tract” value ([3]; human, in vivo) was 13%. The “side effect: nausea” value ([3]; human, in vivo) was 8%, the “side effect: risk of infections” value ([3]; human, in vivo) was 40% and the “side effect: severe infections” value ([3]; human, in vivo) was 2%. For the same substance, the “side effect: sinusitis” value ([3]; human, in vivo) was 7%, the progressive joint destruction [3, 4] was “slows” and the “symptoms of rheumatoid arthritis” value [3, 4] was “reduces”.
